Data on 24 molecules can be found in patent US10584115B2, “Substituted pyridine and pyrazine BMI-1 inhibitors” (PTC Therapeutics, Inc., priority 2013, dated 2020).

One data set has as its system Bmi-1 protein. The data set is described as follows: Sandwich ELISA Assay (Bmi-1 protein level in HT-1080 cells after compound treatment). The following applies: Table 1, Bmi-1 sandwich ELISA, read-out: ELISA EC50 value for Bmi-1 protein. The data set is classed as cell-based. The method, boiled down: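 Sandwich ELISA quantified Bmi-1 protein against recombinant standard (125–8000 pg/mL), with lysates captured overnight at 4 °C and signal by HRP/TMB at 450 nm (570 nm reference). Lysates came from HT-1080 cells incubated 40–48 h with test compounds in 0.5% DMSO.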

Structures are written as SMILES.

On to `COC(=O)c1ccc2nc(C(F)(F)F)c(-c3cncc(Nc4ccc(OC(F)F)cc4)n3)n2c1` [compound 178, methyl 3-(6-{[4-(difluoromethoxy)phenyl]amino}pyrazin-2-yl)-2-(trifluoromethyl)imidazo[1,2-a]pyridine-6-carboxylate], for which the melting point was 227 to 229 °C. Besides, the EC50 in the data set with Bmi-1 protein lay in the range of 100 to 3000 nM. As for `FC1(F)Oc2ccc(Nc3cncc(-c4c(C(F)(F)F)nc5ccccn45)n3)cc2O1` [compound 91, N-(2,2-difluoro-1,3-benzodioxol-5-yl)-6-[2-(trifluoromethyl)imidazo[1,2-a]pyridin-3-yl]pyrazin-2-amine], the melting point fell in the range of 232 to 234 °C. Also, in the data set with Bmi-1 protein, the EC50 lay within 100 to 3000 nM.

Molecule `Cc1cn2c(-c3cncc(Nc4ccc(OC(F)F)cc4)n3)c(C)nc2c(C)n1` [compound 489, N-[4-(difluoromethoxy)phenyl]-6-(2,6,8-trimethylimidazo[1,2-a]pyrazin-3-yl)pyrazin-2-amine] showed a melting point of 140 to 141 °C. Further, in the data set with Bmi-1 protein, the EC50 lay within 1 to 10 nM. In turn, `FC(F)Oc1ccc(Nc2cncc(-n3c(C(F)F)nc4ccccc43)n2)cc1` [compound 482, N-[4-(difluoromethoxy)phenyl]-6-[2-(difluoromethyl)-1H-benzimidazol-1-yl]pyrazin-2-amine] returned a melting point of 213 to 216 °C. In the data set with Bmi-1 protein, the concentration giving a half-maximal response (EC50) was 10 to 100 nM. Consider `COc1ccc(Nc2cncc(-c3c(C)noc3C)n2)cc1` [compound 636, 6-(3,5-dimethyl-1,2-oxazol-4-yl)-N-(4-methoxyphenyl)pyrazin-2-amine], for which the melting point fell in the range of 154 to 155 °C. In addition, in the data set on Bmi-1 protein, the EC50 fell in the range of 10 to 100 nM.

Molecule `Cc1nc2ccccn2c1-c1cncc(Nc2ccc(C(F)(F)F)cc2)n1` [compound 202, 6-(2-methylimidazo[1,2-a]pyridin-3-yl)-N-[4-(trifluoromethyl)phenyl]pyrazin-2-amine] gave a melting point of 180 to 182 °C. The EC50 in the data set on Bmi-1 protein was < 1 nM. Regarding `N#Cc1cc(Nc2ccc(C(F)(F)F)cc2)nc(-n2c(C3CC3)nc3c(F)cc(F)cc32)c1` [compound 474, 2-(2-cyclopropyl-4,6-difluoro-1H-benzimidazol-1-yl)-6-{[4-(trifluoromethyl)phenyl]amino}pyridine-4-carbonitrile], the melting point lay in the range of 233 to 235 °C. Besides, the EC50 in the data set on Bmi-1 protein was in the range of 10 to 100 nM.

The molecule `CCn1nc(C)c(-c2cncc(Nc3ccc(OC(F)F)c(F)c3)n2)c1C` [compound 382, N-[4-(difluoromethoxy)-3-fluorophenyl]-6-(1-ethyl-3,5-dimethyl-1H-pyrazol-4-yl)pyrazin-2-amine] yielded a melting point of 129 to 130 °C. Further, the concentration for a half-maximal effect (EC50) with Bmi-1 protein lay within 1 to 10 nM.

`Cc1nc2ccc(F)cn2c1-c1cc(C#N)cc(Nc2ccc(C(F)(F)F)cc2)n1` [compound 247, 2-(6-fluoro-2-methylimidazo[1,2-a]pyridin-3-yl)-6-{[4-(trifluoromethyl)phenyl]amino}pyridine-4-carbonitrile]: the melting point fell in the range of 241 to 243 °C. In the data set on Bmi-1 protein, the EC50 was 1 to 10 nM. `Cc1nc2c(F)cc(F)cn2c1-c1cc(C#N)cc(Nc2ccc(OC(F)(F)F)cc2)n1` [compound 443, 2-(6,8-difluoro-2-methylimidazo[1,2-a]pyridin-3-yl)-6-{[4-(trifluoromethoxy)phenyl]amino}pyridine-4-carbonitrile]: the melting point fell in the range of 213 to 216 °C. Moreover, the EC50 with Bmi-1 protein was 10 to 100 nM. On to `CSc1nc2ccccc2n1-c1cncc(Nc2ccc(OC(F)(F)F)cc2)n1` [compound 167, 6-[2-(methylsulfanyl)-1H-benzimidazol-1-yl]-N-[4-(trifluoromethoxy)phenyl]pyrazin-2-amine], for which, in the data set with Bmi-1 protein, the EC50 was 100 to 3000 nM. The same measure, in the same setting: then `N#Cc1cc(Nc2ccc(OC(F)F)c(F)c2)nc(-c2c(CO)nc3ccc(F)cn23)c1` [compound 394, 2-{[4-(difluoromethoxy)-3-fluorophenyl]amino}-6-[6-fluoro-2-(hydroxymethyl)imidazo[1,2-a]pyridin-3-yl]pyridine-4-carbonitrile], with 10 to 100 nM; and `Cc1nc2ccccc2n1-c1cncc(Nc2ccc(C(F)(F)F)c(F)c2)n1` [compound 209, N-[3-fluoro-4-(trifluoromethyl)phenyl]-6-(2-methyl-1H-benzimidazol-1-yl)pyrazin-2-amine], with 10 to 100 nM.

Consider `Cc1cn(-c2cncc(Nc3ccc(C(F)(F)F)cc3)n2)c(C)n1` [compound 300], for which the EC50 with Bmi-1 protein was in the range of 10 to 100 nM.

Consider `Cc1ccc2nc(C)n(-c3cncc(Nc4ccc(C(F)(F)F)cc4)n3)c2c1` [compound 343, 6-(2,6-dimethyl-1H-benzimidazol-1-yl)-N-[4-(trifluoromethyl)phenyl]pyrazin-2-amine], for which, in the data set with Bmi-1 protein, the EC50 is 1 to 10 nM. Turning to `ONc1cc(Nc2ccc(C(F)(F)F)cc2)nc(-c2c(C(F)(F)F)nc3ccc(F)cn23)c1` [compound 418, 6-[6-fluoro-2-(trifluoromethyl)imidazo[1,2-a]pyridin-3-yl]-N^4-hydroxy-N^2-[4-(trifluoromethyl)phenyl]pyridine-2,4-diamine], the EC50 in the data set on Bmi-1 protein lay within 10 to 100 nM. For `CCc1ccc2nc(C)n(-c3cncc(Nc4ccc(C(F)(F)F)cc4)n3)c2c1` [Cpd 392, 6-(6-ethyl-2-methyl-1H-benzimidazol-1-yl)-N-[4-(trifluoromethyl)phenyl]pyrazin-2-amine], in the data set on Bmi-1 protein, the EC50 is 100 to 3000 nM.

`Fc1ccc(Nc2cncc(-c3c(C(F)(F)F)nc4ccc(F)cn34)n2)cc1` [compound 669, N-(4-fluorophenyl)-6-[6-fluoro-2-(trifluoromethyl)imidazo[1,2-a]pyridin-3-yl]pyrazin-2-amine]: the EC50 in the data set with Bmi-1 protein fell in the range of 100 to 3000 nM. Take `FC(F)(F)Oc1ccc(Nc2cccc(-c3c(C(F)(F)F)nc4cnccn34)n2)cc1` [compound 195, N-[4-(trifluoromethoxy)phenyl]-6-[2-(trifluoromethyl)imidazo[1,2-a]pyrazin-3-yl]pyridin-2-amine]: the EC50 in the data set with Bmi-1 protein is 100 to 3000 nM. `FC(F)(F)Oc1ccc(Nc2cncc(-c3c(C(F)(F)F)nc4sccn34)n2)cc1` [compound 120, N-[4-(trifluoromethoxy)phenyl]-6-[6-(trifluoromethyl)imidazo[2,1-b][1,3]thiazol-5-yl]pyrazin-2-amine]: the EC50 with Bmi-1 protein is 10 to 100 nM. Same read-out and setting: then `O=[N+]([O-])c1cc(Nc2ccc(OC(F)(F)F)cc2)nc(-c2c(C(F)(F)F)nc3ccccn23)c1` [compound 197, 4-nitro-N-[4-(trifluoromethoxy)phenyl]-6-[2-(trifluoromethyl)imidazo[1,2-a]pyridin-3-yl]pyridin-2-amine], with 10 to 100 nM. Take `Cc1nc2ccc(F)cc2n1-c1cncc(Nc2ccc(Cl)nc2)n1` [compound 427, N-(6-chloropyridin-3-yl)-6-(6-fluoro-2-methyl-1H-benzimidazol-1-yl)pyrazin-2-amine]: in the data set with Bmi-1 protein, the EC50 fell in the range of 10 to 100 nM. `FC(F)Oc1ccc(Nc2cncc(-c3c(C(F)(F)F)nc4ncccn34)n2)cc1` [Cpd 109, N-[4-(difluoromethoxy)phenyl]-6-[2-(trifluoromethyl)imidazo[1,2-a]pyrimidin-3-yl]pyrazin-2-amine]: the EC50 in the data set with Bmi-1 protein was 10 to 100 nM. As to `Cc1cc2nc(C)n(-c3cncc(Nc4ccc(OC(F)(F)F)cc4)n3)c2cc1C` [compound 387, N-[4-(trifluoromethoxy)phenyl]-6-(2,5,6-trimethyl-1H-benzimidazol-1-yl)pyrazin-2-amine], in the data set on Bmi-1 protein, the EC50 was in the range of 100 to 3000 nM.
